Reference: patent US9551718B2, “TMEM120A ion channel modulator” (priority 2014, dated 2017)

Columns and labels:
TMEM120A [1] = biological target: T1, TMEM120A (Homo sapiens, UniProt Q9BXJ8); assay: Cobalt precipitate accumulation in CHO cells stably expressing TMEM120A exposed to hypotonic media; format: cell-based; conditions: cells pretreated with blocker
T1 construct: expressed in transfected cells
T1 sequence (Q9BXJ8 1-343): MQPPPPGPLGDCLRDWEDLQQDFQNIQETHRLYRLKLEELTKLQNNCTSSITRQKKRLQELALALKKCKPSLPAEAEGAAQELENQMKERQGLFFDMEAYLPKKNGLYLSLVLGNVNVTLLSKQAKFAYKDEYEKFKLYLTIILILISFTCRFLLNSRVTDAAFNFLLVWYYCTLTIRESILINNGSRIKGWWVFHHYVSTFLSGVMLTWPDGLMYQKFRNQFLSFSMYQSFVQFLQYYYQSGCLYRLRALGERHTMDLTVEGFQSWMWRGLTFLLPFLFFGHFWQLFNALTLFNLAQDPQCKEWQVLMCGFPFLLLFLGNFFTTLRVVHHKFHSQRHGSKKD
Text: In an embodiment, the assay comprises exposing CHO cells stably expressing TMEM120A (or controls) to hypotonic media. The membrane stretch caused by the swelling opens the channels, enabling the influx of calcium ions and other molecules such as cobalt if present in the media. Quantitating the ion channel activity after the cobalt enters the cells can comprise treating the cells with ammonium sulphide (1.2% Sigma # A1952), then fixing them with paraformaldehyde, then amplified through the silver enhancement method and measuring the amount of cobalt precipitate compared to a control.
CHO cells stably expressing TMEM120A (or controls) were exposed to hypotonic media. The membrane stretch caused by the swelling opens the channels, enabling the influx of calcium ions. In one alternative, calcium ions are substituted for cobalt After cobalt enters the cells, it is precipitated with ammonium sulfide, then the cells are fixed for example with paraformaldehyde, the precipitate is amplified through the silver enhancement method (by following steps provided by the commercial supplier, Sigma).

[2] = tested on: mechanically-activated slowly-adapting (SA) current; conditions: sensory neurons; cited from earlier work
OA mice [3] = assay: Behavioral pain score in the OA mouse model after injection of an MSC blocker; format: in vivo; conditions: injection around 28 days following MIA
Description: (§1) Osteoarthritis is induced by injection of MIA (25 μg dissolved in 5 μl physiological saline) in the mouse knee joint. Control mice receive saline injection. The previously-described knee-bend test^28 is used to assess mechanical allodynia at the primary site of OA pain, as this test provides information regarding pain induced by movement of the affected joint^28 (FIG. 2a). Briefly, each test consists of 5 flexions and 5 extensions of the knee joint, and the total number of vocalization/struggle is recorded. The knee mechanical withdrawal threshold is determined with the Pressure Application Measurement (PAM) device, as previously described^132. Briefly, mice are gently restrained and a force transducer wrapped around the experimenter's thumb is pressed against the knee joint. […] Once the mouse withdraws its knee, the sensor identifies the maximum force applied before the withdrawal.
In an in vivo mouse OA model as described in Example 1, the OA mice further received around 28 days following injection of MIA an injection of a vehicle or either a toxin (GsMTx4 or gadolinium) blocking the MSCs.

MIA injected mice = assay: Knee flexion-extension pain score after intra-articular injection in MIA mice; format: in vivo, mouse; conditions: for analgesia, knee flexion-extension pain score: intra-articular
Description: as §1
The GsMTx4 peptide sequence is […] (SEQ ID NO: 5). […] Moreover, it confirms that intra-articular injections can reach the nerve terminals of knee-innervating nociceptors. […] This indicates the analgesia is not due to the peptide leaking out of the joint to have a systemic effect. N=6-10 for GsMTx4 injections, N=9 for all groups in lidocaine trial.

TMEM120A [4] = assay: shRNA knockdown of TMEM120A in kidney epithelial cells (mIMCD), mechanosensitivity; format: cell-based, mouse; conditions: lentiviral particles
Description: Knockdown was performed by infecting the cells in culture with lentiviral particles expressing an shRNA against TMEM120A and a puromycin resistance gene. This mean of selection enabled to identify cells that had taken up the shRNA. A quantitative polymerase chain reaction was then performed to verify that mRNA levels for TMEM120A were down. The shRNA sequence is […] TTTG (SEQ ID NO: 4).

OA mice [5] = assay: Von Frey test of secondary mechanical allodynia after hindpaw injection; format: in vivo, mouse
Description: Von Frey filaments are used to assess the secondary mechanical allodynia in the hindpaw (FIG. 2a). Mechanical withdrawal threshold is assessed by touching the plantar surface of the hindpaw with von Frey filaments using the up-down method as previously described^133. Positive withdrawals are counted as biting, licking and/or withdrawal of the paw during the 3 sec stimulus. In the knee-bend and PAM tests, MSC blockers are injected in the knee joint. In the von Frey test, they are injected in the intraplantar region.
To determine whether MSCs in nerve terminals at the primary site of the pathology (knee) contribute to mechanical allodynia in OA, the MSC blockers, GsMTx4 or gadolinium are injected in the knee joint of OA mice. Behavioral experiments include the knee-bend test^28 and the knee mechanical withdrawal test. To determine if MSCs contribute to secondary mechanical allodynia, GsMTx4 or gadolinium is injected in the ipsilateral hindpaw and assess secondary allodynia using the von Frey test. To determine whether these channels contribute to mechanosensitivity in the absence of allodynia, the blockers are injected in the knee joint or hindpaw of control mice.

[6] = tested on: cationic stretch-activated ion channels; conditions: from the extracellular side; cited from earlier work
[7] = tested on: MSC activity in knee-innervating nociceptors; assay: Outside-out patch recording of mechanically-evoked MSC current in knee-innervating nociceptors; format: cell-based, mouse
Description: Isolated mouse sensory neurons are obtained by enzymatic digestion of the dorsal root ganglia L3-L4 followed by mechanical dispersion. Joint-innervating neurons are identified by the presence of Fluorogold (FG), a retrograde tracer injected in the knee joint 72 hours prior to dissection. […] Transgenic mice that express the fluorescent protein TdTomato in nociceptors are generated by crossing Crerecombinase-dependent TdTomato reporter mice to Trpv1-Cre mice (FIG. 4). In this approach, recording can be made specifically from articular nociceptors (FG- and TdTomato-positive neurons).
Experiments are done for example 1 hour after plating the isolated neurons in petri dishes, or after 3 days in culture (for example for conducting siRNA experiments). Whole-cell^137,138 and cell-attached^100,102 recordings are obtained using glass pipettes mounted to amplifier headstages driven by motorized micromanipulators. Signals are amplified using multi-clamp 700B amplifiers. All experimental protocols, data acquisition and analysis are performed using the Clampex® and Clampfit™ software.
MSCs are activated using different approaches. In whole-cell recordings, a computer driven stimulating probe is brought near the cell membrane, then brief steps of 0.5 μm amplitude are made toward the cell at a 45 degree angle using a motorized 3-axis micromanipulator. In cell-attached recordings, brief pulses of negative pressure are applied through the recording electrode to increase membrane tension and evoke MSC opening. These pressure pulses are generated by a high-speed pressure clamp device previously validated^100,102.
An outside-out patch is formed and the minimal positive pressure (+P) is applied to open MSCs. 5 μM GsMTx4 is superfused and the protocol is run again. GsMTx4 is then washed and the same patch undergoes one final protocol run. […] Likewise, wash causes the recovery of the reduction (Kruskal-Wallis with Dunn's multiple comparisons, n=161, 85, 100 for control, GsMTx4 and wash, respectively.

## [Gd] [gadolinium]
TMEM120A [1]
  accumulation of cobalt precipitate on hypotonic stimuli: accumulation can be prevented
[2]
  block of SA current: blocked
OA mice [3]
  pain level as measured by a behavioral score: significantly decreases the pain level

## CCN(CC)CC(=O)Nc1c(C)cccc1C [lidocaine]
MIA injected mice; 5% in DMSO, intra-articular injection, vs vehicle
  percentage of analgesia: significantly larger percentage of analgesia compared to vehicle

## N.N.N.N.N.N.N.N.N.N.N.N.N.N.[Cl-].[Cl-].[Cl-].[Cl-].[Cl-].[Cl-].[O-2].[O-2].[Ru+3].[Ru+3].[Ru+4] [ruthenium red]
[2]
  block of SA current: blocked

## CCGGTTCCTGCTGGTCTGGTATTATCTCGAGATAATACCAGACCAGCAGGAATT TTTG (CCGGTTCCTGCTGGTCTGGTATTATCTCGAGATAATACCAGACCAGCAGGAATTTTTG; expressed or natural sequence) [shRNA against TMEM120A, short hairpin RNA against TMEM120A expressed from lentiviral particles]
TMEM120A [4]
  mechanosensitivity: reduces mechanosensitivity

## GCLEFWWKCNPNDDKCCRPKLKCSKLFKLCNFSF (listed as Grammostola spatulata) [GsMTx4]
TMEM120A [1]
  accumulation of cobalt precipitate on hypotonic stimuli: accumulation can be prevented
[2]
  block of SA current: blocked
OA mice [5]; intraplantar injection 15 days after OA induction
  secondary allodynia: significant and reversible attenuation of the secondary allodynia
OA mice [5]; intraplantar injection, naïve mice
  mechanical sensitivity (withdrawal threshold): does not affect mechanical sensitivity
OA mice [5]; ipsilateral hindpaw injection, MIA mice
  duration of effect on mechanical hypersensitivity: ≤ 24 h
MIA injected mice; 5 μM
  analgesia, knee flexion-extension pain score: unable to produce analgesia
MIA injected mice; 50 μM injected in the contralateral knee
  analgesia, knee flexion-extension on the ipsilateral knee: does not provide analgesia
MIA injected mice; 50 μM, ipsilateral knee, vs saline
  analgesia, knee flexion-extension pain score: significant analgesia compared to vehicle
OA mice [3]
  pain level as measured by a behavioral score: significantly decreases the pain level
[6]
  block of cationic stretch-activated ion channels: block cationic stretch-activated ion channels
[7]; 5 μM superfused, outside-out patch
  mean open time of the channel: mean open time is also significantly reduced
[7]; 5 μM superfused, outside-out patch, minimal positive pressure
  mechanically-evoked current (normalized to control trace): significantly reduces the mechanically-evoked current
[7]; after wash of 5 μM GsMTx4
  reversibility of current reduction on wash: this reduction is recovered following wash
